Assays:
[1] = molecular target: T1, Integrin alpha-IIb/beta-3 (Homo sapiens, UniProt P05106+P08514); assay: Affinity for purified activated GPIIb/IIIa fibrinogen receptor in ELISA; type: protein-complex assay
[2] = molecular target: T1, Integrin alpha-IIb/beta-3; assay: Binding to [125I]- fibrinogen by washed platelet fibrinogen receptor

T1 sequence (P05106 27-788 limits assumed): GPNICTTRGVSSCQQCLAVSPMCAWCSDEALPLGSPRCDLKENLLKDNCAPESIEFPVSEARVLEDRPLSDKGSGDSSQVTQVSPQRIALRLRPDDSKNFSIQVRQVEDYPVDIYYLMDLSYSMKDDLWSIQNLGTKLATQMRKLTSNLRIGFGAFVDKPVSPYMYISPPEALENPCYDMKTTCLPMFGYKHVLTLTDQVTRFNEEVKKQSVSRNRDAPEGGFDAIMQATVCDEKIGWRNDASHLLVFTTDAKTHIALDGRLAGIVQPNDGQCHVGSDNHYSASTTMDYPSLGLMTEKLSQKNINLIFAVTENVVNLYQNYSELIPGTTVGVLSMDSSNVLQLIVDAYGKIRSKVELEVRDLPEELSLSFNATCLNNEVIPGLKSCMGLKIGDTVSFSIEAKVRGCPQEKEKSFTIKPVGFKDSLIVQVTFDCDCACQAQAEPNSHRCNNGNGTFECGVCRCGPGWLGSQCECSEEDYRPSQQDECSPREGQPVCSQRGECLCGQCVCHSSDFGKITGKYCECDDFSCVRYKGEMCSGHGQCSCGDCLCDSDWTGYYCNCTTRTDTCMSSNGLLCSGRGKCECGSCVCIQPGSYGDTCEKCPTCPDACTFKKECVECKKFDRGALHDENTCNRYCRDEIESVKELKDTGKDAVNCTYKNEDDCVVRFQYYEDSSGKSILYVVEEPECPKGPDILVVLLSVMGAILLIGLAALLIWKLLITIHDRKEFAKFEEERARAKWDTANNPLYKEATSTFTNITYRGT
T1 sequence (P08514 32-887 limits assumed): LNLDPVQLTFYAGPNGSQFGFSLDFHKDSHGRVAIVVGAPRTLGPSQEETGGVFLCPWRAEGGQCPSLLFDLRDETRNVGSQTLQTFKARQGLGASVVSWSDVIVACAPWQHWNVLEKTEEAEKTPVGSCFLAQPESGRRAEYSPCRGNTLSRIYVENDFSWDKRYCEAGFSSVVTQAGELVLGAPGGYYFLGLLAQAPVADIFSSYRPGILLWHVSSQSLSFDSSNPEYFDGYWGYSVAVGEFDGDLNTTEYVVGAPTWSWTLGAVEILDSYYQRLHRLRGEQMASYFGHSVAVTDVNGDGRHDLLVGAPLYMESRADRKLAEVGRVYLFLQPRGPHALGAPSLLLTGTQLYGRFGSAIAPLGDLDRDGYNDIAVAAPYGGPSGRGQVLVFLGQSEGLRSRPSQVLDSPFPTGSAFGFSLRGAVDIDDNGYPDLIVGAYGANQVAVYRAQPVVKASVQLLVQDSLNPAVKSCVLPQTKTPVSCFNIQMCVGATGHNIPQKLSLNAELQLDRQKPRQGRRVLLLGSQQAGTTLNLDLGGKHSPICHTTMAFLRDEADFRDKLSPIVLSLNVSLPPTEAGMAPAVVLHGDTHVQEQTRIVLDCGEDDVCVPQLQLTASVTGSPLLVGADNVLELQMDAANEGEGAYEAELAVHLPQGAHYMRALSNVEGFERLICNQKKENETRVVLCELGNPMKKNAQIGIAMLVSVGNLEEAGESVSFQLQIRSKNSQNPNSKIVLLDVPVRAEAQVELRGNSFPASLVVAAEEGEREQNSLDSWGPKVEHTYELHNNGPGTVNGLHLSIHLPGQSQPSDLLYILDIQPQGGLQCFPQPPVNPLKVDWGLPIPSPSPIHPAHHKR
T1 sequence (P08514 891-1039 limits assumed): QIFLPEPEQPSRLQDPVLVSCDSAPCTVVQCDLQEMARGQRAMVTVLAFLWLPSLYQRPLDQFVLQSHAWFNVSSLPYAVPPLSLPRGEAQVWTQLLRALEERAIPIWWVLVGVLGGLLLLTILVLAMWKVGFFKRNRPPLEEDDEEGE

| Structure (SMILES) | IC50 [1] | IC50 [2] |
| --- | --- | --- |
| N=C(N)c1ccc(C(=O)Nc2cccc(CCC(=O)O)c2)cc1 | 0.55 nM | 105 nM |
| Cc1nc(NC(=O)c2ccc(C(=N)N)cc2)sc1CCC(=O)O | 0.57 nM | 60.5 nM |
| Cc1c(C(=O)N(C)CCC(=O)O)s/c(=N\C(=O)c2ccc(C(=N)N)cc2)n1C | 0.89 nM | 51.8 nM |
| Cn1c2c(s/c1=N\C(=O)c1ccc(C(=N)N)cc1)C(=O)N(CCC(=O)O)C2 | 4.76 nM | 67.9 nM |
| Cc1nc(N(C)C(=O)c2ccc(C(=N)N)cc2)sc1CCC(=O)O | 1 nM | – |

Stronger by IC50 [1], values ahead:

| IC50 [1] | IC50 [2] | Structure (SMILES) |
| --- | --- | --- |
| 0.13 nM | 6.26 nM | CCCCn1c(C)c(C(=O)NCCC(=O)O)s/c1=N\C(=O)c1ccc(C(=N)N)cc1 |
| 0.12 nM | – | CCn1c(C)c(C(=O)NCCC(=O)O)s/c1=N\C(=O)c1ccc(C(=N)N)cc1 |
| 0.09 nM | – | Cc1c(C(=O)NCCC(=O)O)s/c(=N\C(=O)c2ccc(C(=N)N)cc2)n1Cc1ccccc1 |

— ChEMBL document CHEMBL1134022, “2-Acylimino-3H-thiazoline derivatives: a novel template for platelet GPIIb/IIIa receptor antagonists” (Bioorg Med Chem Lett, 2001)
